Several values for one entry are separate records, joined by “and”; a condition that tells them apart may be missing. Identical values can stand only once.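 Tested at 5 concentrations; 48 h exposure; 96-well plates; endpoints linearly interpolated, else capped at highest concentration. The concentration for 50% growth inhibition is given as GI50. TGI: total growth inhibition.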

Holding throughout (experiment): NCI tumour cell line growth inhibition, 48 h
Experiment [1] has as its system A549 NSCLC.
In experiment [2] the test system is HT29 colon.
For experiment [3], the system named is HOP-92 NSCLC.
Experiment [4] concerns UO-31 renal.
The subject of experiment [5] is CCRF-CEM leukemia.
Experiment [6] has as its system OVCAR-4 ovarian.
Experiment [7] relates to SW-620 colon.
Experiment [8] concerns SK-OV-3 ovarian.
Experiment [9] relates to SR leukemia.

For the compound `CC[O-].CC[O-].O=C1C(=C([O-])c2ccccc2)C(=O)c2ccccc21.O=C1C(=C([O-])c2ccccc2)C(=O)c2ccccc21.[Ti+4]`, the GI50 in experiment [1] is over 100 µM; in experiment [2], over 100 µM; in experiment [3], 95.1 µM; in experiment [4] it was over 100 µM; in experiment [5], over 100 µM; in experiment [6] it was over 100 µM. In addition, the GI50 in experiment [7] is over 100 µM. Moreover, the TGI in experiment [1], in [2], in [3], in experiment [4], in [5] and in experiment [6] was over 100 µM each time. In experiment [7], the TGI was over 100 µM.
For `COc1ccc(C2C(Cl)C(=O)N2n2cnc3ccccc3c2=O)cc1OC` (configuration not stated), the TGI in experiment [1], in experiment [2], in experiment [4], in [8], in experiment [6] and in experiment [9] was over 100 µM in each case. This compound returned a TGI in experiment [7] of over 100 µM.
`Cc1cc(O)c2c(c1)C(O)(c1ccc3c(c1O)C(=O)c1c(O)cc(C)cc1C3(O)C1OC(CO)C(O)C(O)C1O)c1cccc(O)c1C2=O` (configuration not stated): the TGI in experiment [1] is 32.2 µM; in experiment [2], 38.4 µM; in experiment [3], 20.4 µM; in experiment [4], 32 µM; in [5], 25.8 µM; in [8], 31.4 µM. Further, the TGI in experiment [6] came to 26.4 µM; in [9], 30.9 µM; in experiment [7], 34 µM.
On to `O=[N+]([O-])c1ccc(N=Nc2c(O)[nH]c3ccc([N+](=O)[O-])cc23)cc1`, for which the TGI was 32.4 µM in experiment [1]; 51.8 µM in [2]; 25.6 µM in [3]; 59.8 µM in experiment [4]; over 100 µM in experiment [5]; 58.5 µM in experiment [8]. The values for the TGI in [6], in experiment [9] and in experiment [7] were 38.6 µM, over 100 µM and 29.5 µM, respectively.
As to `O=C(C(=O)c1ccc(Cc2ccc(C(=O)C(=O)c3ccccc3)cc2)cc1)c1ccccc1`, the TGI in experiment [1], in experiment [2], in [3], in experiment [4], in experiment [5] and in [8] was over 100 µM each time. Also, the TGI in [6] and in [7] was over 100 µM in each case.
For `CSc1nc2c(c(O)c(C)c(=O)n2C2OC(COC(C)=O)C(OC(C)=O)C(OC(C)=O)C2OC(C)=O)c(=O)n1C` (configuration not stated), the TGI in experiment [1], in [2], in experiment [3], in [4], in experiment [5] and in [8] was over 100 µM throughout. Also, the TGI in [6] and in experiment [7] was over 100 µM in each case.
For the compound `O=C(c1ccccc1)c1c(CC(O)c2cccnc2)n(C(=O)c2ccccc2)c2ccccc12` (configuration not stated), the TGI in [1] was over 100 µM; in [2], 35.6 µM; in experiment [3] it was 30.9 µM; in experiment [4], 32.6 µM; in experiment [5] it was 63.4 µM; in experiment [6], 42.4 µM. The TGI in [9] was found to be 35.1 µM; in experiment [7], 74.9 µM.
As to `Cc1cc([N+](=O)[O-])c(C)c2c1[nH]c1ccc(/C(CCC3CCCC3)=N\N)cc12`, the TGI in experiment [1] was 34.2 µM; in experiment [2] it was over 100 µM; in experiment [4] it was 30 µM; in experiment [5], 44.9 µM; in experiment [6] it was 53.9 µM; in experiment [9], 55.9 µM. The TGI in experiment [7] is 33.5 µM.
In the case of `COc1cc(C2c3cc4c(cc3[C@@H](Nc3ccc(N(C)C)cc3)[C@H]3COC(=O)C23)OCO4)cc(OC)c1O` (some centres not stated), the GI50 in [1] is 0.173 µM; in [2], 2.46 µM; in [3], 0.807 µM; in experiment [4] it was 1.47 µM; in [8], 0.279 µM; in experiment [6], 13 µM. The GI50 in experiment [7] is 1.92 µM. The TGI in experiment [1] was 2.02 µM and 3.09 µM; in [2] it was 4.64 µM and 11.3 µM; in [3] it was 11.4 µM and 17 µM; in [4], 3.27 µM and 6.69 µM; in experiment [8] it was 2.23 µM and 5.72 µM; in experiment [6] it was 18.7 µM and 25.8 µM. Moreover, the TGI in experiment [9] was 0.924 µM; in [7], 14 µM and 16.5 µM.
With `CC(C)c1ccc2nc3ccc(C(=O)NCCN(C)C)cn3c(=O)c2c1`, the TGI in experiment [1] stood at 34.7 µM; in [2], 24.5 µM; in [4], 29.5 µM; in experiment [5], 32.1 µM; in [8] it was 33.5 µM; in experiment [6], 56.5 µM. The figures for the TGI in experiment [9] and in experiment [7] were 63 µM and 28.6 µM, respectively.
On to `N=C(N)SCc1cn2ccccc2n1`, for which the TGI in experiment [1], in experiment [2], in experiment [4], in experiment [5], in [6] and in [9] was over 100 µM each time. This compound also displayed a TGI in [7] of over 100 µM.
In the case of `CC(C)N(C(=O)C12C3C4C1C1C2C3C41C(O)C(C)(C)C)C(C)C` (configuration not stated), the TGI in [1], in experiment [2], in experiment [3], in experiment [4], in experiment [5] and in experiment [8] was over 50 µM throughout. Moreover, the TGI in experiment [9] and in [7] was over 50 µM in each case.
On to `CC(C)c1cccc(C(C)C)c1NC(=O)C(=O)C(C(=O)c1ccccc1-c1ccccc1)C1OC(=O)c2ccccc21` (configuration not stated), for which the TGI in experiment [1] was over 100 µM; in experiment [2], 43.9 µM; in experiment [4], 36.5 µM; in experiment [5] it was 68.5 µM; in [6], 45.9 µM; in experiment [9], over 100 µM. Further, the TGI in experiment [7] stood at 37.8 µM.
For the compound `CCc1ccccc1NC(=O)C(=O)C(C(=O)c1ccc(OC)cc1)c1ccc(OC)cc1` (configuration not stated), the TGI in [1], in experiment [2], in experiment [4], in [5], in experiment [8] and in experiment [6] was over 100 µM throughout. In experiment [7], this compound returned a TGI of over 100 µM.

For the origin of these results see PubChem BioAssay (NCI).
